Among the data in PubChem BioAssay (NCI) are GI50 and TGI values, retold here.

Test in all cases: DTP human tumour cell line panel, 48 h
Experiment [1] deals with A498 renal.
The subject of experiment [2] is BT-549 breast.
In experiment [3] the test system is COLO 205 colon.
In experiment [4] the test system is MDA-MB-231 breast.
Experiment [5] has as its system MOLT-4 leukemia.
Experiment [6] deals with RXF 393 renal.
Experiment [7] relates to SF-295 CNS.
The test system of experiment [8] is SK-MEL-5 melanoma.
The test system of experiment [9] is SNB-19 CNS.
In experiment [10] the test system is SR leukemia.

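All cell lines were grown in 96-well plates and treated with compound for 48 hours. The concentration for 50% growth inhibition is given as GI50. The concentration for full growth arrest is given as TGI.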 A value given as a limit tells only on which side of the number the result lay.

The GI50 is the concentration at which growth is held to half of that of the control. As usually defined, the TGI is the concentration at which net growth stops. Low readings indicate more potent growth arrest, high ones less potent growth arrest. Turning to `COc1cc(-c2nn(-c3cccc(NC(=O)c4ccccc4)c3)cc2-c2ccncc2)ccc1Cl`, the GI50 in experiment [1] was 197 nM; in experiment [2], 980 nM; in experiment [3] it was 522 nM; in experiment [4], 1.06 µM; in experiment [5], 701 nM; in experiment [6], 545 nM. The GI50 in experiment [7] was 315 nM; in experiment [8] it was 259 nM; in experiment [9] it was 1370 nM; in [10] it was 250 nM. For the same molecule, the TGI is 1.35 µM in [1]; above 100 µM in experiment [2]; 3.23 µM in experiment [3]; above 36.9 µM in experiment [4]; above 100 µM in [5]; above 25.2 µM in experiment [6]. The TGI in experiment [7] was 1.44 µM; in [8], 945 nM; in experiment [9], above 100 µM; in experiment [10], above 100 µM.
As to `O=C(NC1CCCCC1)NS(=O)(=O)c1ccc(N2N=C3c4ccccc4CC3C2c2ccc(Cl)cc2)cc1` (stereo not given), the total growth inhibition concentration (TGI) in experiment [1] amounted to 9.2 µM; in experiment [2] it was 25.2 µM; in experiment [3], 34 µM; in [4], 31.2 µM; in experiment [5], 19.4 µM; in [6] it was 87.5 µM. In addition, the TGI is 43.9 µM in experiment [7], 18300 nM in [8], 97.5 µM in experiment [9] and 1.85 µM in experiment [10]. The GI50 in experiment [2] was 7010 nM; in experiment [3], 11700 nM; in [4] it was 12.8 µM; in [5], 4040 nM; in experiment [6] it was 23200 nM; in [7] it was 15900 nM. In addition, the GI50 was 3690 nM in experiment [8], 21600 nM in [9] and 406 nM in experiment [10].
Take `CC(C)[C@@H]1NC(=O)[C@]2(C)CSC(=N2)c2ccnc(c2)CNC(=O)C[C@@H](/C=C/CCS)OC1=O`: the GI50 in experiment [1] was 32.3 nM; in experiment [2], 718 nM; in experiment [3], 717 nM; in [4] it was 0.472 µM; in [5] it was 128 nM; in [6] it was 82.8 nM. Besides, the GI50 is 62.3 nM in [7], 71.5 nM in experiment [8], 283 nM in experiment [9] and 64.1 nM in experiment [10]. Further, the concentration for total growth inhibition (TGI) in experiment [1] is 0.254 µM; in experiment [2], above 100 µM; in experiment [3], 2.41 µM; in [4] it was above 100 µM; in [5], above 100 µM; in [6] it was 0.562 µM. Further, the TGI in experiment [7] was 0.322 µM; in experiment [8], 323 nM; in experiment [9], above 39.4 µM; in [10], above 100 µM.
On to `COc1cc2c(cc1OC)C(Cl)C(c1ccc(F)cc1)=C2Cl` (stereo not given), for which the TGI was found to be 29.9 µM in experiment [1]; 15.6 µM in experiment [2]; 31 µM in [3]; 27 µM in experiment [4]; 13.1 µM in [5]; 30.1 µM in [6]. For the same molecule, the TGI in experiment [7] worked out at 29 µM; in experiment [8] it was 27400 nM; in experiment [9] it was 37.5 µM; in experiment [10], 14.3 µM.
Turning to `COc1c2ccccc2c(OC)c2[nH]c(=O)ccc12`, the GI50 in [1] is 2040 nM; in experiment [2], 2070 nM; in experiment [3] it was 4300 nM; in experiment [4], 9.75 µM; in [5] it was above 21500 nM; in experiment [6], 16300 nM. Besides, the GI50 is 1440 nM in experiment [7], 847 nM in experiment [8], 2020 nM in [9] and 6610 nM in experiment [10]. The TGI is 4.75 µM in [1]; 4.51 µM in experiment [2]; 14.9 µM in experiment [3]; above 89.8 µM in [4]; above 100 µM in [5]; above 100 µM in experiment [6]. Also, the TGI was 3.29 µM in experiment [7], 2190 nM in experiment [8], 4.11 µM in experiment [9] and above 100 µM in experiment [10].
In the case of `Nc1nc2[nH]cc(CCc3ccc(C(=O)N[C@@H](CCC(=O)O)C(=O)O)cc3)c2c(=O)[nH]1`, the GI50 in experiment [1] was 124 nM; in [2], above 71700 nM; in experiment [3], above 34600 nM; in experiment [4], above 100 µM; in experiment [5], 530 nM; in experiment [7], 606 nM. Besides, the TGI in [1], in [2], in [3], in experiment [4], in [5] and in experiment [6] was above 100 µM throughout. In addition, the concentration for total growth inhibition (TGI) in [7] is above 100 µM; in [8], above 100000 nM; in experiment [9], above 100 µM; in [10] it was above 100 µM.
For `O=[N+]([O-])c1cc([N+](=O)[O-])c(C(F)(F)F)cc1NN=C(c1ccc(O)cc1)c1ccc(O)cc1`, the GI50 was 3180 nM in experiment [1]; 5000 nM in experiment [2]; 2150 nM in experiment [3]; 3.11 µM in experiment [4]; 1800 nM in experiment [5]; 2640 nM in experiment [6]. For the same molecule, the GI50 was 1570 nM in experiment [7], 1640 nM in experiment [8], 4670 nM in [9] and 1550 nM in experiment [10]. Besides, the TGI in experiment [1] amounted to 12.7 µM; in experiment [2] it was 42.8 µM; in experiment [3], 5.33 µM; in experiment [4] it was 9.41 µM; in [5], 5.77 µM; in experiment [6], 8.47 µM. The TGI in [7] amounted to 3.81 µM; in [8], 3000 nM; in experiment [9] it was 16.6 µM; in [10], 6.42 µM.
As for `CCOc1ccc(NC2=CC(=O)C(=O)c3ccccc32)cc1`, the TGI was found to be 12.2 µM in experiment [1]; 3.02 µM in [2]; 10.9 µM in [3]; 54.5 µM in [4]; 80.1 µM in experiment [5]; 14.6 µM in experiment [6]. In addition, the TGI was determined as 5.4 µM in experiment [7], 2950 nM in experiment [8], 9.46 µM in [9] and 17.6 µM in experiment [10].
